# Laboratory results as given in PMC2363072, “Oral topotecan: bioavailability and effect of food co-administration” (British Journal of Cancer, 1999).
# Read-outs that look alike come from different tables or passages of the source.
# Tests used:
# [1] = clinical; format: in vivo, human (patients with solid tumours); conditions: for Urinary excretion: 24 h urine
# Excerpt: (§1) Topotecan (Hycamtin) is one of the prototypes of a promising new class of cytotoxic drugs that act through inhibition of topoisomerase I. Topoisomerase I is a nuclear enzyme that relieves the torsional strain in DNA ahead of the moving replication fork (Hsiang et al, 1988, 1989). Inhibition of the enzyme results in lethal DNA damage during transcription and replication. The E-ring lactone in the basic structure of topotecan is considered to be essential for interaction with the topoisomerase I enzyme (Hertzberg et al, 1989; Pommier et al, 1991). […] Prolonged administra- tion increases the probability that tumour cells will be exposed to topotecan during DNA replication, i.e. when they are most suscep- tible. In-vivo in patients there is yet no convincing evidence of a clinically relevant schedule dependency. Intravenous (i.v.) topotecan administered as daily 30-min infu- sions for 5 days has recently received marketing approval for the treatment of patients with ovarian cancer after failure of initial or subsequent platinum-based chemotherapy. An oral gelatin capsule formulation has now been developed (Creemers et al, 1997; Gerrits et al 1998). A phase I study has determined the maximum tolerated dose (MTD) for oral topotecan to be 2.3 mg m-2 for the daily times five dosing schedule (Gerrits et al, 1998). […] In these studies, bioavailability was tested in fasted patients. […] Food can have marked effects on drug absorption by increasing, decreasing, or sometimes simply delaying it. Food can also influence drug metabolism, and certain food components, such as protein and fat, are particularly potent in this respect. For an oral formulation it is therefore essential to investigate the effect of food co-administration on the pharmacokinetics. The aims of the present study were (1) to evaluate the effect of fed and fasted conditions on the bioavailability and pharmaco- kinetics of oral topotecan, and (2) to determine the absolute bioavailability of the gelatin capsule formulation. Oral topotecan: bioavailability and effect of food co-administration VMM Herben1,2 , H Rosing1 , WW ten Bokkel Huinink2 , DM van Zomeren1 , D Batchelor2 , E Doyle3 , FD Beusenberg4 , JH Beijnen1,2 and JHM Schellens2 1 Slotervaart Hospital/The Netherlands Cancer Institute, Department of Pharmacy and Pharmacology, Amsterdam, The Netherlands; 2 Antoni van Leeuwenhoek Hospital/The Netherlands Cancer Institute, Department of Medical Oncology, Amsterdam, The Netherlands; 3 SmithKline Beecham Pharmaceuticals, Department of Drug Metabolism and Pharmacokinetics, Hertfordshire, UK; 4 SmithKline Beecham Farma, Rijswijk, The Netherlands Summary The aims of the study were twofold: (1) to evaluate the effect of food on the relative oral bioavailability of topotecan gelatin capsules in patients with solid tumours, and (2) to determine the absolute bioavailability of oral topotecan with reference to the intravenous (i.v.) formulation. […] On day 1 of the first treatment course patients were administered 2.3 mg m-2 day-1 of oral topotecan with or without a high-fat breakfast. They crossed over to receive the alternate regimen on day 2. In the second course (3 weeks later) fasted patients received topotecan orally (2.3 mg m-2 day-1 ) or i.v. ([…]). They crossed over to receive the alternate regimen on day 2. On days 3-5 of both treatment courses patients received oral topotecan. Plasma pharmacokinetics were performed on days 1 and 2 of the first and second course using a high-performance liquid chromatographic assay. Eighteen patients were enrolled in the study. The ratio of the area under the curve to infinity during fasted and high-fat treatment was 0.93 0.23 (90% confidence interval (CI) 0.83-1.03). Maximal plasma concentrations of topotecan were similar after ingestion of the capsules with (10.6 4.4 ng ml-1 ) or without food (9.2 4.1 ng ml-1 ) (P = 0.130). […]
# [2] = system: topoisomerase I; set-up: method as in Johnson and Wood, personal communication; conditions: ref Johnson and Wood, personal communication; cited from earlier work
# [3] = clinical; set-up: species or system human (patients with solid tumours); conditions: human, in vivo
# Excerpt: as §1
# [4] = set-up: method as in Davies et al, 1995; conditions: dogs, ref Davies et al, 1995; cited from earlier work
# [5] = set-up: method as in Gerrits et al, 1998; conditions: oral gelatin capsule, ref Gerrits et al, 1998, cited from earlier work
# [6] = set-up: method as in Eckardt et al, 1995; Schellens et al, 1996; conditions: i.v. formulation administered orally; fasted patients; ref Eckardt et al, 1995; Schellens et al, 1996; cited from earlier work
# [7] = metabolite as total of lactone and carboxylate, corrected for administered topotecan dose
# [8] = total of the analyte, plasma, after i.v. topotecan 1.5 mg m-2
# [9] = total, corrected for actual administered topotecan dose
smiles,measurement,setting,value
CC[C@@]1(O)C(=O)OCc2c1cc1n(c2=O)Cc2cc3c(CNC)c(O)ccc3nc2-1 [N-desmethyltopotecan],metabolic ratio (metabolite:topotecan AUC ratio),[1]; after i.v. administration,4.5%
same,"time at which maximal total metabolite plasma levels were reached, median",[1]; after ingestion of topotecan capsules,4.0 h
same,metabolic ratio (metabolite:topotecan AUC ratio),[1]; after oral administration,6.9%
same,"time at which maximal total metabolite plasma levels were reached, median",[1]; after the start of the i.v. infusion,2.1 h
same,lactone plasma concentrations,"[1]; lactone form of metabolite, lower limit of quantification 0.1 ng ml-1",below the detection limit in six patients
same,oral:i.v. AUC0- (to infinity) ratio,[1]; [7],62%
same,oral:i.v. AUC0-t ratio,[1]; [7],71%
same,Cmax,"[1]; plasma, after i.v. topotecan 1.5 mg m-2",0.44 ng/mL
same,Cmax,"[1]; plasma, after oral topotecan 2.3 mg m-2",0.34 ng/mL
same,t1/2 ratio oral/i.v.,[1]; total,1.17
same,AUC0-t,"[1]; total (lactone + carboxylate) of the analyte, plasma, after oral topotecan 2.3 mg m-2",0.0027 µg·h/mL
same,Urinary excretion,"[1]; total of the analyte, % of i.v. topotecan dose",0.9%
same,Urinary excretion,"[1]; total of the analyte, % of oral topotecan dose (topotecan corrected for F)",1.1%
same,t1/2 (apparent terminal half-life),"[1]; total of the analyte, after i.v. topotecan 1.5 mg m-2",6.21 h
same,t1/2 (apparent terminal half-life),"[1]; total of the analyte, after oral topotecan 2.3 mg m-2",7.25 h
same,AUC0- (area under the curve to infinity),[1]; [8],0.0048 µg·h/mL
same,AUC0-t,[1]; [8],0.0024 µg·h/mL
same,AUC0- (area under the curve to infinity),"[1]; total of the analyte, plasma, after oral topotecan 2.3 mg m-2",0.0046 µg·h/mL
same,AUC0- (to infinity) ratio oral/i.v.,[1]; [9],0.62
same,AUC0-t ratio oral/i.v.,[1]; [9],0.71
same,Cmax ratio oral/i.v.,[1]; [9],0.51
same,topoisomerase I-inhibiting activity relative to parent compound,[2],slightly less topoisomerase I-inhibiting activity than the parent compound
"CC[C@@]1(O)C(=O)OCc2c1cc1n(c2=O)Cc2cc3c(CN(C)C)c(O)ccc3nc2-1 [topotecan, Topotecan]",absolute bioavailability (F) using AUC0-t,"[1]; human, in vivo",40%
same,bioavailability,"[1]; human, in vivo, absolute bioavailability (F)",42 ± 13%
same,bioavailability,"[1]; human, in vivo, bioavailability calculated using only the lactone data",38%
same,coefficient of variation of the AUC0- (interpatient variability),"[1]; human, in vivo, iv",25%
same,lactone:total topotecan AUC0- ratio,"[1]; human, in vivo, iv",0.38
same,AUC0- (area under the curve to infinity),"[1]; human, in vivo, iv, 1.5 mg",0.0386 µg·h/mL
same,t1/2 (apparent terminal half-life),"[1]; human, in vivo, iv, 1.5 mg",2.64 h
same,Cmax,"[1]; human, in vivo, iv, 1.5 mg, Cmax",33.9 ng/mL
same,coefficient of variation of the AUC0- (interpatient variability),"[1]; human, in vivo, po",44%
same,lactone:total topotecan AUC0- ratio,"[1]; human, in vivo, po",0.35
same,AUC0- (area under the curve to infinity),"[1]; human, in vivo, po, 2.3 mg",0.0227 µg·h/mL
same,AUC0-t,"[1]; human, in vivo, po, 2.3 mg",0.0204 µg·h/mL
same,Cmax,"[1]; human, in vivo, po, 2.3 mg, Cmax",6.3 ng/mL
same,"plasma concentration at the pre-dose time point for day 2 (carry-over), mean",[3],0.43 ng/mL
same,AUC0- (to infinity) ratio fasted/fed,"[3]; po, 2.3 mg",0.88
same,"time needed to reach maximal plasma levels (tmax), median","[3]; po, 2.3 mg",2.0 h
same,AUC0-t,"[3]; po, 2.3 mg, AUC0-t",0.0196 µg·h/mL
same,half-life,"[3]; po, 2.3 mg, t1/2 (apparent terminal half-life)",3.84 h
same,Tmax,"[3]; po, 2.3 mg, time needed to reach maximal plasma levels (tmax), median",3.1 h
same,half-life,"[3]; total, oral 2.3 mg m-2, fed, read-out: t1/2 (apparent terminal half-life) (converted)",3.49 h
same,part of an absorbed oral dose that enters the blood circulation as the open-ring form,[4],approximately 2.5%
same,maximum tolerated dose (MTD),[5]; daily times five dosing schedule,2.3 mg m-2
same,Dose-limiting toxicity (DLT),[5]; daily times five,NCI CTC grade 4 neutropenia
same,bioavailability,[6],30-44%
